Test results as given in the supplement of paper PMC10733146.

Experiments:
Test in all cases: viability relative to DMSO control (fraction); higher = less drug effect (more viable cells)
[1] = test system: primary DLBCL patient cells (S082); details: 48 h
Summary of the method: (§1)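 Viability was quantified by CellTiter-Glo luminescence and related to the median of 16 inner DMSO wells. Before that, primary mononuclear tumour cells, fresh or cryopreserved and Ficoll-isolated from blood or bone marrow or prepared from processed lymph node, were plated at 4 × 10^4 cells per well in 384-well plates containing pre-plated compounds at five concentrations, one well each. Plates were incubated in RPMI-1640 with penicillin/streptomycin, L-glutamine and human serum at 37 °C and 5% CO2 for 48 h.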

[2] = test system: primary AML patient cells (S021); details: 48 h
Summary of the method: as §1

[3] = test system: primary AML patient cells (S055); details: 0.008 µM; 48 h
Summary of the method: as §1

[4] = test system: primary AML patient cells (S089); details: 48 h
Summary of the method: as §1

[5] = test system: primary MCL patient cells (S041); details: 48 h
Summary of the method: as §1

[6] = test system: primary BL patient cells (S005); details: 48 h
Summary of the method: as §1

[7] = test system: primary MCL patient cells (S053); details: 48 h
Summary of the method: as §1

[8] = test system: primary AML patient cells (S071); details: 1 µM; 48 h
Summary of the method: as §1

[9] = test system: primary MCL patient cells (S063); details: 48 h
Summary of the method: as §1

[10] = test system: primary AML patient cells (S007); details: 1 µM; 48 h
Summary of the method: as §1

[11] = test system: primary ALL patient cells (S048); details: 0.008 µM; 48 h
Summary of the method: as §1

[12] = test system: primary AML patient cells (S006); details: 0.04 µM; 48 h
Summary of the method: as §1

[13] = test system: primary MCL patient cells (S068); details: 48 h
Summary of the method: as §1

[14] = test system: primary AML patient cells (S044); details: 1 µM; 48 h
Summary of the method: as §1

[15] = test system: primary AML patient cells (S012); details: 48 h
Summary of the method: as §1

[16] = test system: primary DLBCL patient cells (S049); details: 48 h
Summary of the method: as §1

[17] = test system: primary AML patient cells (S009); details: 0.0016 µM; 48 h
Summary of the method: as §1

[18] = test system: primary DLBCL patient cells (S076); details: 0.2 µM; 48 h
Summary of the method: as §1

[19] = test system: primary AML patient cells (S002); details: 0.04 µM; 48 h
Summary of the method: as §1

[20] = test system: primary FL patient cells (S022); details: 48 h
Summary of the method: as §1

[21] = test system: primary AML patient cells (S011); details: 0.2 µM; 48 h
Summary of the method: as §1

[22] = test system: primary AML patient cells (S017); details: 0.04 µM; 48 h
Summary of the method: as §1

[23] = test system: primary AML patient cells (S037); details: 48 h
Summary of the method: as §1

[24] = test system: primary AML patient cells (S019); details: 1 µM; 48 h
Summary of the method: as §1

[25] = test system: primary B-PLL patient cells (S016); details: 48 h
Summary of the method: as §1

[26] = test system: primary AML patient cells (S081); details: 1 µM; 48 h
Summary of the method: as §1

[27] = test system: primary AML patient cells (S079); details: 48 h
Summary of the method: as §1

[28] = test system: primary AML patient cells (S072); details: 48 h
Summary of the method: as §1

[29] = test system: primary T-NHL patient cells (S058); details: 0.0016 µM; 48 h
Summary of the method: as §1

[30] = test system: primary AML patient cells (S056); details: 0.008 µM; 48 h
Summary of the method: as §1

SMILES: C=CC(=O)N1CCC[C@@H](n2nc(-c3ccc(Oc4ccccc4)cc3)c3c(N)ncnc32)C1 [Ibrutinib]
- viability ([1]; 0.0016 µM): 0.711
- viability ([1]; 0.008 µM): 0.583
- viability ([1]; 0.04 µM): 0.465
- viability ([1]; 0.2 µM): 0.458
- viability ([1]; 1 µM): 0.477
- viability ([2]; 0.04 µM): 1
- viability ([2]; 1 µM): 0.913
- viability [3]: 0.949
- viability ([4]; 0.008 µM): 0.988
- viability ([4]; 0.04 µM): 1
- viability ([4]; 0.2 µM): 0.615
- viability ([4]; 1 µM): 0.6
- viability ([5]; 0.0016 µM): 0.874
- viability ([5]; 0.008 µM): 0.802
- viability ([6]; 0.0016 µM): 1.1
- viability ([6]; 0.008 µM): 0.982
- viability ([6]; 0.2 µM): 0.978
- viability ([7]; 0.0016 µM): 0.591
- viability ([7]; 0.008 µM): 0.57
- viability ([7]; 0.04 µM): 0.595
- viability ([7]; 0.2 µM): 0.588
- viability ([7]; 1 µM): 0.601
- viability [8]: 0.673
- viability ([9]; 0.0016 µM): 0.475
- viability ([9]; 0.008 µM): 0.292
- viability ([9]; 0.04 µM): 0.253
- viability ([9]; 0.2 µM): 0.255
- viability ([9]; 1 µM): 0.262
- viability [10]: 0.338
- viability [11]: 1.12
- viability [12]: 0.988
- viability ([13]; 0.0016 µM): 0.77
- viability ([13]; 0.008 µM): 0.697
- viability ([13]; 0.2 µM): 0.687
- viability ([13]; 1 µM): 0.783
- viability [14]: 0.777
- viability ([15]; 0.0016 µM): 1.1
- viability ([15]; 0.008 µM): 1.09
- viability ([16]; 0.0016 µM): 0.848
- viability ([16]; 0.04 µM): 0.729
- viability ([16]; 0.2 µM): 0.687
- viability ([16]; 1 µM): 0.686
- viability [17]: 0.965
- viability [18]: 0.89
- viability [19]: 1.18
- viability ([20]; 0.2 µM): 0.978
- viability ([20]; 1 µM): 0.978
- viability [21]: 0.972
- viability [22]: 1.1
- viability ([23]; 0.0016 µM): 1.4
- viability ([23]; 0.04 µM): 1.5
- viability ([23]; 1 µM): 1.75
- viability [24]: 1
- viability ([25]; 0.0016 µM): 0.576
- viability ([25]; 0.008 µM): 0.507
- viability ([25]; 0.04 µM): 0.517
- viability ([25]; 0.2 µM): 0.508
- viability ([25]; 1 µM): 0.547
- viability [26]: 1.14
- viability ([27]; 0.04 µM): 0.879
- viability ([27]; 0.2 µM): 0.862
- viability ([27]; 1 µM): 1.25
- viability ([28]; 0.0016 µM): 1.2
- viability ([28]; 0.04 µM): 0.913
- viability [29]: 1.12
- viability [30]: 1.1
